# Results: ChEMBL document CHEMBL3745679, “Identification and characterization of natural microbial products that alter the free d-aspartate content of mammalian cells” (2016)
# Calls of active or inactive are those of the source. No cut-off for these calls is given here.
# Key:
# PC-12 [1] = assay: Inhibition of D-aspartate biosynthesis in rat PC12 cells assessed as reduction of total D-aspartate level up to 0.5 uM after 24 hrs by O-phthalaldehyde/N-acetyl-L-cysteine derivatization technique-based HPLC analysis; type: functional, cell-based
# PC-12 [2] = assay: Effect on L-aspartate biosynthesis in rat PC12 cells assessed as effect on total L-aspartate content up to 0.5 uM after 24 hrs by O-phthalaldehyde/N-acetyl-L-cysteine derivatization technique-based HPLC analysis; type: functional, cell-based
# HEK293 = assay: Increase in intracellular D-aspartate content in HEK293 cells at 5 ug after 24 hrs by O-phthalaldehyde/N-acetyl-L-cysteine derivatization technique-based HPLC analysis relative to total aspartate (reference value: 7.38 +/- 1.9%); type: functional, Homo sapiens
# PC-12 [3] = assay: Inhibition of D-aspartate biosynthesis in rat PC12 cells assessed as reduction of intracellular D-aspartate content up to 0.5 uM after 24 hrs by O-phthalaldehyde/N-acetyl-L-cysteine derivatization technique-based HPLC analysis; type: functional, cell-based
# PC-12 [4] = assay: Effect on L-aspartate biosynthesis in rat PC12 cells assessed as effect on intracellular L-aspartate content up to 0.5 uM after 24 hrs by O-phthalaldehyde/N-acetyl-L-cysteine derivatization technique-based HPLC analysis; type: functional, cell-based
# PC-12 [5] = assay: Effect on L-aspartate biosynthesis in rat PC12 cells assessed as effect on total L-aspartate level up to 10 uM after 24 hrs by O-phthalaldehyde/N-acetyl-L-cysteine derivatization technique-based HPLC analysis; type: functional, cell-based
# PC-12 [6] = assay: Inhibition of D-aspartate biosynthesis in rat PC12 cells assessed as reduction of intracellular D-aspartate level up to 10 uM after 24 hrs by O-phthalaldehyde/N-acetyl-L-cysteine derivatization technique-based HPLC analysis; type: functional, cell-based
# PC-12 [7] = assay: Effect on L-aspartate biosynthesis in rat PC12 cells assessed as effect on intracellular L-aspartate level up to 10 uM after 24 hrs by O-phthalaldehyde/N-acetyl-L-cysteine derivatization technique-based HPLC analysis; type: functional, cell-based
# PC-12 [8] = assay: Effect on L-aspartate biosynthesis in rat PC12 cells assessed as effect on L-aspartate level in cell culture medium up to 10 uM after 24 hrs by O-phthalaldehyde/N-acetyl-L-cysteine derivatization technique-based HPLC analysis; type: functional
# PC-12 [9] = assay: Inhibition of D-aspartate biosynthesis in rat PC12 cells assessed as reduction of D-aspartate level in cell culture medium up to 10 uM after 24 hrs by O-phthalaldehyde/N-acetyl-L-cysteine derivatization technique-based HPLC analysis; type: functional
# PC-12 [10] = assay: Inhibition of D-aspartate biosynthesis in rat PC12 cells assessed as reduction of total D-aspartate content at 10 uM measured at 6 to 16 hrs by O-phthalaldehyde/N-acetyl-L-cysteine derivatization technique-based HPLC analysis relative to vehicle-treated control; type: functional, cell-based
# PC-12 [11] = assay: Inhibition of D-aspartate biosynthesis in rat PC12 cells assessed as reduction of total D-aspartate content at 10 uM measured at 1 to 3 hrs by O-phthalaldehyde/N-acetyl-L-cysteine derivatization technique-based HPLC analysis relative to vehicle-treated control; type: functional, cell-based
# PC-12 [12] = assay: Inhibition of D-aspartate biosynthesis in rat PC12 cells assessed as reduction of intracellular D-aspartate content at 10 uM measured at 3 to 16 hrs by O-phthalaldehyde/N-acetyl-L-cysteine derivatization technique-based HPLC analysis relative to vehicle-treated control; type: functional, cell-based
# PC-12 [13] = assay: Inhibition of D-aspartate biosynthesis in rat PC12 cells assessed as reduction of total D-aspartate level after 24 hrs by O-phthalaldehyde/N-acetyl-L-cysteine derivatization technique-based HPLC analysis; type: functional, cell-based
# PC-12 [14] = assay: Inhibition of D-aspartate biosynthesis in rat PC12 cells assessed as reduction of intracellular D-aspartate content at 10 uM measured at 1 hr by O-phthalaldehyde/N-acetyl-L-cysteine derivatization technique-based HPLC analysis relative to vehicle-treated control; type: functional, cell-based
# PC-12 [15] = assay: Effect on L-aspartate biosynthesis in rat PC12 cells assessed as effect on total L-aspartate level up to 0.2 uM after 24 hrs by O-phthalaldehyde/N-acetyl-L-cysteine derivatization technique-based HPLC analysis; type: functional, cell-based
# PC-12 [16] = assay: Effect on L-aspartate biosynthesis in rat PC12 cells assessed as effect on intracellular L-aspartate level up to 0.2 uM after 24 hrs by O-phthalaldehyde/N-acetyl-L-cysteine derivatization technique-based HPLC analysis; type: functional, cell-based
# PC-12 [17] = assay: Inhibition of D-aspartate biosynthesis in rat PC12 cells assessed as reduction of total D-aspartate content at 0.2 uM measured at 1 to 6 hrs by O-phthalaldehyde/N-acetyl-L-cysteine derivatization technique-based HPLC analysis relative to vehicle-treated control; type: functional, cell-based
# PC-12 [18] = assay: Effect on L-aspartate biosynthesis in rat PC12 cells assessed as effect on L-aspartate level in cell culture medium up to 0.2 uM after 24 hrs by O-phthalaldehyde/N-acetyl-L-cysteine derivatization technique-based HPLC analysis; type: functional
# PC-12 [19] = assay: Inhibition of D-aspartate biosynthesis in rat PC12 cells assessed as reduction of D-aspartate content in cell culture medium at 0.2 uM measured at 6 to 12 hrs by O-phthalaldehyde/N-acetyl-L-cysteine derivatization technique-based HPLC analysis relative to vehicle-treated control; type: functional
# PC-12 [20] = assay: Inhibition of D-aspartate biosynthesis in rat PC12 cells assessed as reduction of D-aspartate level in cell culture medium after 24 hrs by O-phthalaldehyde/N-acetyl-L-cysteine derivatization technique-based HPLC analysis; type: functional
# PC-12 [21] = assay: Inhibition of D-aspartate biosynthesis in rat PC12 cells assessed as reduction of total D-aspartate content at 0.2 uM measured at 16 hrs by O-phthalaldehyde/N-acetyl-L-cysteine derivatization technique-based HPLC analysis relative to vehicle-treated control; type: functional, cell-based
# PC-12 [22] = assay: Inhibition of D-aspartate biosynthesis in rat PC12 cells assessed as effect on intracellular D-aspartate content at 0.2 uM incubated up to 16 hrs by O-phthalaldehyde/N-acetyl-L-cysteine derivatization technique-based HPLC analysis relative to vehicle-treated control; type: functional, cell-based
# PC-12 [23] = assay: Inhibition of D-aspartate biosynthesis in rat PC12 cells assessed as reduction of intracellular D-aspartate level after 24 hrs by O-phthalaldehyde/N-acetyl-L-cysteine derivatization technique-based HPLC analysis; type: functional, cell-based
smiles,measurement,setting,value
CC(C)[C@H]1CC[C@@]2(CO2)[C@H]2C(=O)OCC(C(=O)O)=C[C@H]12,inhibition,PC-12 [1],inactive
same,Activity,PC-12 [2],inactive
same,Activity,HEK293,0.291%
same,inhibition,PC-12 [3],inactive
same,Activity,PC-12 [4],inactive
COC1=C2C[C@@H](C)C[C@H](OC)[C@H](O)[C@@H](C)/C=C(\C)[C@H](OC(N)=O)[C@@H](OC)/C=C\C=C(/C)C(=O)NC(=CC1=O)C2=O [GELDANAMYCIN],Activity,PC-12 [5],inactive
same,inhibition,PC-12 [6],Active
same,Activity,PC-12 [7],inactive
same,Activity,PC-12 [8],inactive
same,inhibition,PC-12 [9],Active
same,inhibition,PC-12 [10],Active
same,Activity,HEK293,15.8%
same,inhibition,PC-12 [11],inactive
same,inhibition,PC-12 [12],Active
same,inhibition,PC-12 [13],Dose-dependent effect
same,inhibition,PC-12 [14],inactive
CO[C@@H](C(=O)[C@H](O)[C@@H](C)O)[C@H]1Cc2cc3cc(O[C@H]4C[C@@H](O[C@@H]5C[C@H](O)[C@@H](O)[C@H](C)O5)[C@H](O)[C@@H](C)O4)c(C)c(O)c3c(O)c2C(=O)[C@@H]1O[C@H]1C[C@@H](O[C@@H]2C[C@H](O[C@H]3C[C@](C)(O)[C@H](O)[C@@H](C)O3)[C@@H](O)[C@H](C)O2)[C@H](O)[C@@H](C)O1,Activity,PC-12 [15],inactive
same,Activity,PC-12 [16],inactive
same,inhibition,PC-12 [17],inactive
same,Activity,PC-12 [18],inactive
same,inhibition,PC-12 [19],Active
same,inhibition,PC-12 [20],Dose-dependent effect
same,inhibition,PC-12 [21],Active
same,inhibition,PC-12 [22],inactive
same,Activity,HEK293,9.33%
same,inhibition,PC-12 [23],Dose-dependent effect
